Experimental findings from the NIST ThermoML archive (doi:10.1016/j.jct.2006.07.013) are described below.

Molecules are shown by their SMILES. ± gives the expanded uncertainty stated by the source.

A short description of data set [1]: refractive index (Na D-line) (dimensionless). Conditions: 298.15 K, 101.33 kPa, Liquid.
The conditions of data set [2]: 298.15 K, 101.33 kPa, Liquid; for speed of sound: Sing-around technique in a fixed-path interferometer.

On to `CCCCOC(C)=O` [butyl ethanoate], for which, in data set [1] (Standard Abbe refractometry), the refractive index is given as 1.39191 ± 0.00051. In data set [2], the mass density is 876.35 ± 1.9 kg/m3 and the speed of sound came out at 1193.1 ± 2.1 m/s.
Consider `CCCCCCC(=O)OC` [methyl heptanoate], for which, in data set [1] (refractometer), the refractive index was determined as 1.40945 ± 0.00021. For the same compound, the speed of sound in data set [2] came out at 1254.6 ± 1.2 m/s. For the same compound, the mass density in data set [2] (Vibrating tube method) is reported as 875.88 ± 0.23 kg/m3.
`Cc1ccccc1` [toluene]: the refractive index in data set [1] (Standard Abbe refractometry) worked out at 1.4939 ± 0.00031. Besides, in data set [2], the mass density is 862.34 ± 0.18 kg/m3 and the speed of sound was 1306.3 ± 0.7 m/s.
The like results for `COC(C)=O` [methyl ethanoate] were, in that order, 1.35893 ± 0.00037, 927.36 ± 0.65 kg/m3 and 1154 ± 1.2 m/s.
